Source: PubChem BioAssay (NCI)
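Compound exposure: 48 hours, 5 concentrations, 96-well plates. TGI denotes the concentration required for complete inhibition of growth.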

What was measured:
Experiment in all cases: DTP human tumour cell line panel, 48 h
KM12 colon = system: KM12 colon
CAKI-1 renal = system: CAKI-1 renal
TK-10 renal = system: TK-10 renal
COLO 205 colon = system: COLO 205 colon
RPMI-8226 leukemia = system: RPMI-8226 leukemia
OVCAR-4 ovarian = system: OVCAR-4 ovarian
BT-549 breast = system: BT-549 breast
MDA-N = system: MDA-N
NCI-H226 lung = system: NCI-H226 lung
MDA-MB-435 = system: MDA-MB-435
HOP-92 NSCLC = system: HOP-92 NSCLC
SN12C renal = system: SN12C renal
ACHN renal = system: ACHN renal
A549 NSCLC = system: A549 NSCLC
SF-268 CNS = system: SF-268 CNS
NCI-H522 lung = system: NCI-H522 lung
MCF7 breast = system: MCF7 breast
MOLT-4 leukemia = system: MOLT-4 leukemia
786-0 renal = system: 786-0 renal
SK-MEL-2 melanoma = system: SK-MEL-2 melanoma
HCT-15 colon = system: HCT-15 colon
MALME-3M melanoma = system: MALME-3M melanoma
HT29 colon = system: HT29 colon
RXF 393 renal = system: RXF 393 renal
NCI-H23 lung = system: NCI-H23 lung
MDA-MB-231 breast = system: MDA-MB-231 breast
SK-MEL-5 melanoma = system: SK-MEL-5 melanoma
EKVX NSCLC = system: EKVX NSCLC
DU-145 prostate = system: DU-145 prostate
A498 renal = system: A498 renal
PC-3 prostate = system: PC-3 prostate
LOX IMVI melanoma = system: LOX IMVI melanoma
SF-295 CNS = system: SF-295 CNS
IGROV1 ovarian = system: IGROV1 ovarian
HOP-62 NSCLC = system: HOP-62 NSCLC
OVCAR-8 ovarian = system: OVCAR-8 ovarian
OVCAR-5 ovarian = system: OVCAR-5 ovarian
SF-539 CNS = system: SF-539 CNS
SNB-19 CNS = system: SNB-19 CNS
SK-MEL-28 melanoma = system: SK-MEL-28 melanoma
UO-31 renal = system: UO-31 renal
HCT-116 colon = system: HCT-116 colon
HS 578T breast = system: HS 578T breast
UACC-62 melanoma = system: UACC-62 melanoma
CCRF-CEM leukemia = system: CCRF-CEM leukemia
HCC-2998 colon = system: HCC-2998 colon
T-47D breast = system: T-47D breast
NCI/ADR-RES ovarian = system: NCI/ADR-RES ovarian
K-562 leukemia = system: K-562 leukemia
U251 CNS = system: U251 CNS
SW-620 colon = system: SW-620 colon
OVCAR-3 ovarian = system: OVCAR-3 ovarian
M14 melanoma = system: M14 melanoma
HL-60(TB) leukemia = system: HL-60(TB) leukemia
UACC-257 melanoma = system: UACC-257 melanoma
SNB-75 CNS = system: SNB-75 CNS
NCI-H460 lung = system: NCI-H460 lung
SR leukemia = system: SR leukemia

Measured: TGI

C[C@H](NC(=O)C(C)(Cc1ccc(O)cn1)NC(=O)c1ccccc1)c1ccccc1 (stereo not given in full)
> 100 µM: KM12 colon | CAKI-1 renal | TK-10 renal | COLO 205 colon | RPMI-8226 leukemia | OVCAR-4 ovarian | BT-549 breast | MDA-N | NCI-H226 lung | MDA-MB-435 | HOP-92 NSCLC | SN12C renal | ACHN renal | A549 NSCLC | SF-268 CNS | NCI-H522 lung | MCF7 breast | MOLT-4 leukemia | 786-0 renal | SK-MEL-2 melanoma | HCT-15 colon | MALME-3M melanoma | HT29 colon | RXF 393 renal | NCI-H23 lung | MDA-MB-231 breast | SK-MEL-5 melanoma | EKVX NSCLC | DU-145 prostate | A498 renal | PC-3 prostate | LOX IMVI melanoma | SF-295 CNS | IGROV1 ovarian | HOP-62 NSCLC | OVCAR-8 ovarian | OVCAR-5 ovarian | SF-539 CNS | SNB-19 CNS | SK-MEL-28 melanoma | UO-31 renal | HCT-116 colon | HS 578T breast | UACC-62 melanoma | CCRF-CEM leukemia | HCC-2998 colon | T-47D breast | NCI/ADR-RES ovarian | K-562 leukemia | U251 CNS | SW-620 colon | OVCAR-3 ovarian | M14 melanoma | HL-60(TB) leukemia | UACC-257 melanoma

Nc1ccnc2c1ncn2[C@H]1C[C@H](O)[C@@H](CO)O1
> 100 µM: KM12 colon | CAKI-1 renal | TK-10 renal | COLO 205 colon | OVCAR-4 ovarian | SNB-75 CNS | BT-549 breast | MDA-N | NCI-H226 lung | MDA-MB-435 | HOP-92 NSCLC | SN12C renal | NCI-H460 lung | ACHN renal | A549 NSCLC | SF-268 CNS | NCI-H522 lung | MCF7 breast | SR leukemia | MOLT-4 leukemia | 786-0 renal | SK-MEL-2 melanoma | HCT-15 colon | HT29 colon | RXF 393 renal | NCI-H23 lung | MDA-MB-231 breast | SK-MEL-5 melanoma | EKVX NSCLC | DU-145 prostate | A498 renal | PC-3 prostate | LOX IMVI melanoma | SF-295 CNS | IGROV1 ovarian | HOP-62 NSCLC | OVCAR-8 ovarian | OVCAR-5 ovarian | SF-539 CNS | SNB-19 CNS | SK-MEL-28 melanoma | UO-31 renal | HCT-116 colon | HS 578T breast | UACC-62 melanoma | CCRF-CEM leukemia | HCC-2998 colon | T-47D breast | NCI/ADR-RES ovarian | U251 CNS | SW-620 colon | OVCAR-3 ovarian | M14 melanoma | HL-60(TB) leukemia | UACC-257 melanoma
